The values below come from patent US10292949B2, “Pharmaceutical composition comprising rimeporide for treating diseases associated with insulin resistance and β-cell dysfunction” (Merck Patent GmbH, priority 2008, dated 2019).

Common to all, as to type: in vivo, rat
Data set [1] is described as follows: Pharmacological Study Report I: body weight of ZF (fa/fa) rats during 4 weeks of treatment. To be noted: age 8-12 weeks, Compound A 150 mg/kg gavage twice daily, Compound B 40 mg/kg/day in chow. The procedure:
(§1) Obese, insulin resistant ZF (fa/fa) rats, which are treated from the age of 8-12 weeks, were used as IR model. Rats were housed with a 12-h light/dark cycle and free access to food and water unless otherwise noted. Studies were approved by the Institutional Animal Care and Use Committee. There were a total of 18 animals in the study (8 week-old males, provided by Charles River). Animals were randomized into 3 groups (vehicle group, Compound A group, Compound B group, n=6 per group) based on random glucose level at the beginning of the study: • Group 1: ZF rats (fa/fa) (n=6), compound A (150 mg/kg via gavage) • Group 2: ZF rats (fa/fa) (n=6), compound B (40 mg/kg/day as admixture to the chow) • Group 3: ZF rats (fa/fa) (n=6), vehicle treatment (control chow, vehicle gavage)
(§2) Group 1 and 3 animals were treated with compound A or vehicle (water) for 4 weeks (from age 8-12 weeks) via oral gavage, twice daily. Chow containing compound B was fed to Group 2 ad lib. Group 1 and Group 3 were fed with chow without compound B ad lib.

Data set [2] relates to Obese, insulin resistant ZF (fa/fa) rats. As to the kind of experiment: Pharmacological Study Report I: deuterated glucose disposal test (2H-GDT). Particulars: 4 weeks, Compound B 40 mg/kg/day in chow. As to the method:
as §1, §2
Rats underwent a 4 hour fast. […] At t=0, the blood glucose concentrations were determined with a glucometer, and a blood sample was obtained for determination of base line insulin and H2O^18 dilution. […]
One hundred micro liter aliquots of plasma samples inside the cape of an inverted vial were placed in a heating blocked filled with glass beads at 70° C. overnight and the water distillate inside the vial was collected. The deuterium and oxygen-18 isotope ratios of the blood of plasma samples were determined using a Thermo Finnigan High Temperature Conversion/Elemental Analyzer coupled with a Thermo Finnigan MAT 253 IRMS via a Conflo-III Interface. […] The deuterium isotope abundance is first calculated in δ 2H values relative to the international VSMOW standard, and then transformed to APE by using a calibration curve of standards with known enrichments. The ^2H2O enrichment was calculated for rats at 30 min after the glucose load. ^2H2O enrichment was converted to mmoles by multiplying enrichment by the TBW pool size and dividing by 20 (MW ^2H2O). […]

The nature of data set [3]: Pharmacological Study Report II: body weight and food intake. Particulars: for Average food consumption, Week 1 / Average food consumption, Week 2 / Average food consumption, Week 3 / Average food consumption, Week 4: fa/fa rats, average +/- SD. The procedure: (§3) Thirty-six obese Zucker fa/fa and six lean Zucker fa/? male rats obtained from Charles River, were housed under normal vivarium conditions on a 12 hour light/dark cycle. The rats were kept two to a cage with food and water available ad lib, except during the weekly, 4 hour fasts. Water continued to be available during these fasts.
(§4) Compound A corresponds to Cariporide. Compound B corresponds to 2-Methyl-4,5-di-(methylsulfonyl)-benzoyl-guanidine hydrochloride hydrate. Compounds A and B were supplied in powder form by Merck Serono. Drugs were incorporated into a pelleted diet (LabDiet, 5001) by Research Diets, Inc (New Brunswick, N.J.) at concentrations of 0.44 g/kg or 0.88 g/kg of diet to yield approximate doses of 40 or 80 mg/kg. The concentration was calculated based on the assumption that a 300 g rat would eat about 30 g/d of chow. The same chow, but without drug, was fed to rats of both the lean and fa/fa control group animals.
(§5) One week prior to the start of the study, all rats were weighed. After a 4 hour fast, a blood sample was obtained for the determination of blood glucose, insulin, and glycosylated hemoglobin levels (HbA1c). Animals were then sorted on the basis of these parameters into the groups listed below. Rats were eight weeks of age at the onset of treatment.
(§6) • 1. ZF rats (fa/fa) (n=6) chow without drug • 2. ZF rats (fa/fa) (n=6) compound A (40 mg/kg/day) • 3. ZF rats (fa/fa) (n=6) compound A (80 mg/kg/day) • 4. ZF rats (fa/fa) (n=6) compound B (40 mg/kg/day) • 5. ZF rats (fa/fa) (n=6) compound B (80 mg/kg/day) • 6. lean Zucker rats (fa/?) (n=6) chow without drug Dosing Regime
(§7) Treatment appropriate chow was continuously available for 4 weeks except during scheduled 4 h fasts conducted once per week.
individual body weights were determined once per week. Average food intake per cage was also determined once per week and the individual rat consumption was calculated by dividing the cage average by 2 (rats housed 2/cage).

The test system of data set [4] is obese Zucker fa/fa rats. As to the kind of experiment: Pharmacological Study Report II: random and fasting (4 h) blood glucose and plasma insulin levels. Particulars: Mean ± SD; for Change in Insulin (fasting): change over the 4 week treatment period; for Week 4 Insulin (fasting): week 4 of treatment. As to the method:
as §3, §4, §5, §6, §7
Both random and fasting (4 h) blood glucose levels were determined using a hand-held glucometer (OneTouch Ultra, Lifescan, Inc. Milapitas, Calif.) on blood obtained from tail capillary samples. Plasma insulin levels were determined by a rat specific ELISA (Ultra Sensitive Rat Insulin ELISA Kit, Crystal Chem, Inc., Chicago, Ill.). The 4 h fast period started at 9 a.m. and ended after a blood draw at 1 p.m.

Data set [5] concerns obese Zucker fa/fa rats. As to the kind of experiment: Pharmacological Study Report II: HbA1c levels. Particulars: Mean ± SD; for Base line HbA1c: baseline; for Change in HbA1c: change over the 4 week treatment period; for Week 4 HbA1c: week 4 of treatment. The procedure:
as §3, §4, §5, §6, §7
HbA1c level were determined using a DCA 2000 analyzer (Bayer Healthcare LLC, Elkhart Ind.) prior to beginning the study and again at the end of the 4th week treatment period.

Where a name gives a salt, the structure may show the parent alone.

For the compound `[H]/N=C(\N)NC(=O)c1cc(S(C)(=O)=O)c(S(C)(=O)=O)cc1C` [Compound B, 2-Methyl-4,5-di-(methylsulfonyl)-benzoyl-guanidine hydrochloride hydrate], the “Body weight, difference among vehicle- and compound-treated groups” value in data set [1] is reported as “no significant differences”. The “Insulin sensitivity (% 2H2O recovery per insulin AUC), increase compared to pre-treatment values” in data set [2] was roughly 4 fold. The “Average weekly food intake vs chow fed fa/fa controls” value in data set [3] (Zucker fa/fa rats, 4 weeks, 40 or 80 mg/kg in chow) was “did not differ significantly”. Also, the “Average food consumption, Week 1” value in data set [3] (40 mg/kg in chow) was 32.1 +/− 3.2 grams; in data set [3] (80 mg/kg in chow), 31.8 +/− 1.4 grams. The “Average food consumption, Week 2” value in data set [3] (40 mg/kg in chow) was 33.8 +/− 2.9 grams; in data set [3] (80 mg/kg in chow) it was 32.9 +/− 1.9 grams. Further, the “Average food consumption, Week 3” value in data set [3] (40 mg/kg in chow) is recorded as 31.7 +/− 2.9 grams; in data set [3] (80 mg/kg in chow), 33.0 +/− 0.7 grams. Moreover, the “Average food consumption, Week 4” value in data set [3] (40 mg/kg in chow) is given as 33.6 +/− 4.4 grams; in data set [3] (80 mg/kg in chow), 34.0 +/− 2.9 grams. The results for the “Baseline Insulin (fasting)” value in the data set with obese Zucker fa/fa rats [4] (40 mg/kg group) and with obese Zucker fa/fa rats [4] (80 mg/kg group) were 14.7 ± 2.7 ng/mL and 16.2 ± 11.2 ng/mL, respectively. The “Change in Insulin (fasting)” value with obese Zucker fa/fa rats [4] (40 mg/kg) was -0.2 ± 4.4 ng/mL; with obese Zucker fa/fa rats [4] (80 mg/kg), -3.2 ± 11.2 ng/mL. For the same compound, the entries for the “Week 4 Insulin (fasting)” value in the data set on obese Zucker fa/fa rats [4] (40 mg/kg in chow) and with obese Zucker fa/fa rats [4] (80 mg/kg in chow) were 14.5 ± 5.5 ng/mL and 13.1 ± 8.2 ng/mL, respectively. Also, the “Base line HbA1c” value with obese Zucker fa/fa rats [5] (40 mg/kg group) worked out at 3.8 ± 0.2%; in the data set on obese Zucker fa/fa rats [5] (80 mg/kg group), 4.0 ± 0.4%. The “Change in HbA1c” value is 0.4 ± 0.2% with obese Zucker fa/fa rats [5] (40 mg/kg) and 0.8 ± 0.7% in the data set on obese Zucker fa/fa rats [5] (80 mg/kg). Further, the entries for the “Week 4 HbA1c” value in the data set on obese Zucker fa/fa rats [5] (40 mg/kg in chow) and with obese Zucker fa/fa rats [5] (80 mg/kg in chow) were 4.3 ± 0.3% and 4.8 ± 0.4 %, respectively.
